Measurements reported in patent publication US20250368645A1, “BETA CARBOLINE ANALOGUES AS SELECTIVE AND BIASED KAPPA OPIOID RECEPTORS AGONISTS FOR TREATING VARIOUS ASSOCIATED PATHOPHYSIOLOGICAL CONDITIONS” (COUNCIL OF SCIENTIFIC AND INDUSTRIAL RESEARCH, priority 2022, published 2025).
Read-outs that look alike come from different tables or passages of the source.

How the values were obtained:
Type in all cases: cell-based
human KOR [1] = biological target: T1, human KOR (Homo sapiens, UniProt P41145); experiment: β-arrestin2 Tango assay in HTLA cells transiently transfected with human KOR; details: Table 2, KOR; read-out: B-arrestin Tango Assay (pEC50) (converted)
Target sequence in this assay (P41145 whole entry, added parts left off): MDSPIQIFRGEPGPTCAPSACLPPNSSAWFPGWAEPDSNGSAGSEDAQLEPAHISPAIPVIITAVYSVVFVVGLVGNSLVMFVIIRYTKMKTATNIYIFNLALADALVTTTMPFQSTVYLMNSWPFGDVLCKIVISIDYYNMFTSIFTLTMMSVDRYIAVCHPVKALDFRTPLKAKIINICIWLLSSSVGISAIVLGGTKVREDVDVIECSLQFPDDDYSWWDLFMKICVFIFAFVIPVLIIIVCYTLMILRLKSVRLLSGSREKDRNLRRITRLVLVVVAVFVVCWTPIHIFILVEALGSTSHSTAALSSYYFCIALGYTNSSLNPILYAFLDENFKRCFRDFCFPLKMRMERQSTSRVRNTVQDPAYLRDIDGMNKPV

DOR = DOR (Homo sapiens, UniProt P41143); experiment: GloSensor assay at DOR; details: given as Log IC50 (negative values)
human KOR [2] = biological target: T1, human KOR; experiment: GloSensor assay, Gi-mediated cAMP inhibition in HEK-293T cells transfected with human KOR; details: for G-Protein Bias factor (IC50 -Glosensor/- EC50 - Tango): KOR, GloSensor versus Tango;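 as to agonist at KOR (pIC50): value taken from a statement in the text not a table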
Target sequence in this assay (P41145 whole entry): as the sequence (P41145 whole entry, added parts left off) above

MOR = MOR (Homo sapiens, UniProt P35372); experiment: GloSensor assay at MOR; details: given as Log IC50 (negative values)
[3] = Table 2, KOR, read-out: GloSensor Assay (pIC50) (converted)
[4] = given as Log IC50 (negative values), agonist activity, inhibition of FSK-stimulated cAMP, read-out: GloSensor Assay (Log IC50) KOR (converted)
[5] = read-out: agonist at KOR (pIC50) (converted)

MOR, sequence (P35372 whole entry): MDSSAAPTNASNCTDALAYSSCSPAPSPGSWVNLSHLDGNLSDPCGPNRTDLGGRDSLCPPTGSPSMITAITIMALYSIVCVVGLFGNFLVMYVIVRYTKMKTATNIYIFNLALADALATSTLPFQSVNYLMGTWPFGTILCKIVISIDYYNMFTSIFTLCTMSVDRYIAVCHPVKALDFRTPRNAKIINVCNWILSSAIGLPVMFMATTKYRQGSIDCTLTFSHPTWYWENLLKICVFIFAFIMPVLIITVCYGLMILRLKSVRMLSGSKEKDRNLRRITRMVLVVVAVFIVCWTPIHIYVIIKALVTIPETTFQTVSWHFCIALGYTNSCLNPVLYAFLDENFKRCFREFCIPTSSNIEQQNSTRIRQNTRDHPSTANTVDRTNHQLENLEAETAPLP
DOR, sequence (P41143 whole entry): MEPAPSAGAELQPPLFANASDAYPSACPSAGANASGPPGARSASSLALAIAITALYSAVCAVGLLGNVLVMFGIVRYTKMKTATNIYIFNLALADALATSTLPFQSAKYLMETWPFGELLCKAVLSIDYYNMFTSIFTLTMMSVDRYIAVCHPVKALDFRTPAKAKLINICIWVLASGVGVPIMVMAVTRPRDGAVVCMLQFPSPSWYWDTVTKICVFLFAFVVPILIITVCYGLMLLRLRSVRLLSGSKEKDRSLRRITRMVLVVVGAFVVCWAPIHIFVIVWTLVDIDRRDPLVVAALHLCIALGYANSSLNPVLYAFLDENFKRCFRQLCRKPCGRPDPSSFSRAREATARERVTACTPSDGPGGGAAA

Compound | EC50 (human KOR [1]) [µM] | IC50 (DOR) [µM] | G-Protein Bias factor (IC50 -Glosensor/- EC50 - Tango) (human KOR [2]) | IC50 (human KOR [2]; [3]) [µM] | IC50 (human KOR [2]; [4]) [µM] | IC50 (human KOR [2]; [5]) [µM] | IC50 (MOR) [µM]
Clc1ccc(-c2c3c4[nH]c5ccccc5c4cc[n+]3cn2-c2ccc(Cl)cc2)cc1.[Cl-] [8adc, 1,2-Bis(4-chlorophenyl)-2,11-dihydrolmidazo[1′,5′:1,2]pyrido[3,4-b]indol-4-ium chloride] | 0.955 | > 10 | 3.28 | 0.000501 | 0.00158 | < 0.0316 | > 10
Clc1ccc(-n2c[n+]3ccc4c5ccccc5[nH]c4c3c2-c2ccccc2Br)cc1.[Cl-] [8acc, 1-(2-Bromophenyl)-2-(4-chlorophenyl)-2,11-dihydrolmidazo[1′,5′:1,2]pyrido[3,4-b]indol-4-ium] | 0.457 | 3.98 | 2.89 | 0.000589 | 0.00158 | < 0.0316 | 2
Fc1ccc(-n2c[n+]3ccc4c5ccccc5[nH]c4c3c2-c2ccc(Cl)cc2)cc1.[Cl-] [8add, 1-(4-Chlorophenyl)-2-(4-fluorophenyl)-2,11-dihydroimidazo[1′,5′:1,2]pyrido[3,4-b]indol-4-ium chloride] | 1.38 | > 10 | 2.67 | 0.00294 | 0.00398 | < 0.0316 | > 10
Fc1ccc(-n2c[n+]3ccc4c5ccccc5[nH]c4c3c2-c2ccccc2Cl)cc1.[Cl-] [8aed, 1-(2-Chlorophenyl)-2-(4-fluorophenyl)-2,11-dihydroimidazo[1′,5′:1,2]pyrido[3,4-b]indol-4-ium chloride] | 0.115 | > 10 | 1.06 | 0.01 | 0.01 | < 0.0316 | > 10
Cc1ccc(-c2c3c4[nH]c5ccccc5c4cc[n+]3cn2-c2ccc(F)cc2)cc1.[Cl-] [8akd, 2-(4-Fluorophenyl)-1-(p-tolyl)-2,11-dihydroimidazo[1′,5′:1,2]pyrido[3,4-b]indol-4-ium chloride] | 0.916 | > 10 | 3.15 | 0.000641 | 0.00158 | < 0.0316 | > 10
Brc1ccc(-n2c[n+]3ccc4c5ccccc5[nH]c4c3c2-c2ccccc2Br)cc1.[Cl-] [8acb, 1-(2-Bromophenyl)-2-(4-bromophenyl)-2,11-dihydroimidazo[1′,5′:1,2]pyrido[3,4-b]indol-4-ium chloride] | 0.457 | > 10 | 3.6 | 0.000115 | 0.00251 | < 0.0316 | > 10
Brc1cccc(-n2c[n+]3ccc4c5ccccc5[nH]c4c3c2-c2ccccc2)c1 [8aae, 2-(3-Bromophenyl)-1-phenyl-2,11-dihydrolmidazo[1′,5′:1,2]pyrido[3,4-b]indol-4-ium chloride] | – | > 10 | – | – | > 10 | – | > 10
c1ccc(-c2c3c4[nH]c5ccccc5c4cc[n+]3cn2-c2ccccc2)cc1 [8aaa, 1,2-Diphenyl-2,11-dihydroimidazo[1′,5′:1,2]pyrido[3,4-b]indol-4-ium chloride] | – | > 10 | – | – | > 10 | – | > 10
Cn1c2ccccc2c2cc[n+]3cn(-c4ccc(F)cc4)c(-c4ccc(Br)cc4)c3c21 [8dbd, 1-(4-Bromophenyl)-2-(4-fluorophenyl)-11-methyl-2,11-dihydroimidazo[1′,5′:1,2]pyrido[3,4-b]indol-4-iumchloride] | – | > 10 | – | – | > 10 | – | > 10
FC(F)(F)Oc1ccc(Cn2c[n+]3ccc4c5ccccc5[nH]c4c3c2-c2ccc(Cl)cc2)cc1 [9abh, 1-(4-Chlorophenyl)-2-(4-(trifluoromethoxy)benzyl)-2,11-dihydroimidazo[1′,5′:1,2]pyrido[3,4-b]indol-4-ium chloride] | – | > 10 | – | – | > 10 | – | > 10
Clc1cccc(-n2c[n+]3ccc4c5ccccc5[nH]c4c3c2-c2ccccc2)c1 [8aaf, 2-(3-Chlorophenyl)-1-phenyl-2,11-dihydroimidazo[1′,5′:1,2]pyrido[3,4-b]indol-4-ium chloride] | – | > 10 | – | – | > 10 | – | > 10
FC(F)(F)c1ccc(Cn2c[n+]3ccc4c5ccccc5[nH]c4c3c2-c2ccc(Br)cc2)cc1 [9aad, 1-(4-Bromophenyl)-2-(4-(trifluoromethyl)benzyl)-2,11-dihydroimidazo[1′,5′:1,2]pyrido[3,4-b]indol-4-ium chloride] | – | > 10 | – | – | > 10 | – | > 10
Fc1ccc(-c2c3c4[nH]c5ccccc5c4cc[n+]3cn2-c2ccc(Br)cc2)cc1 [8agb, 2-(4-Bromophenyl)-1-(4-fluorophenyl)-2,11-dihydroimidazo[1′,5′:1,2]pyrido[3,4-b]indol-4-ium chloride] | – | > 10 | – | – | > 10 | – | > 10
Brc1ccc(-c2c3c4[nH]c5ccccc5c4cc[n+]3cn2-c2ccc(Br)cc2)cc1 [8abb, 1,2-Bis(4-bromophenyl)-2,11-dihydroimidazo[1′,5′:1,2]pyrido[3,4-b]indol-4-ium chloride] | – | > 10 | – | – | > 10 | – | > 10
Clc1ccc(-c2c3c4[nH]c5ccccc5c4cc[n+]3cn2-c2ccc(Br)cc2)cc1.[Cl-] [8adb, 2-(4-Bromophenyl)-1-(4-chlorophenyl)-2,11-dihydroimidazo[1′,5′:1,2]pyrido[3,4-b]indol-4-ium chloride] | 0.55 | > 10 | 1.44 | 0.02 | 0.02 | < 0.0316 | > 10
Fc1cccc(-n2c[n+]3ccc4c5ccccc5[nH]c4c3c2-c2ccc(Br)cc2)c1 [8abi, 1-(4-Bromophenyl)-2-(3-fluorophenyl)-2,11-dihydroimidazo[1′,5′:1,2]pyrido[3,4-b]indol-4-ium chloride] | – | > 10 | – | – | > 10 | – | > 10
Clc1ccc(-c2c3c4[nH]c5ccccc5c4cc[n+]3cn2-c2cccc(Br)c2)cc1 [8ade, 2-(3-Bromophenyl)-1-(4-chlorophenyl)-2,11-dihydroimidazo[1′,5′:1,2]pyrido[3,4-b]indol-4-ium chloride] | – | > 10 | – | – | > 10 | – | > 10
Clc1ccc(-n2c[n+]3ccc4c5ccccc5[nH]c4c3c2-c2ccc(Br)cc2)cc1.[Cl-] [8abc, 1-(4-Bromophenyl)-2-(4-chlorophenyl)-2,11-dihydromidazo[1′,5′:1,2]pyrido[3,4-b]indol-4-ium chloride] | 0.251 | > 10 | 2.35 | 0.00112 | 0.000631 | < 0.0316 | > 10
COc1ccc(Cn2c[n+]3ccc4c5ccccc5[nH]c4c3c2-c2ccc(Cl)cc2)cc1OC [9abg, 1-(4-Chlorophenyl)-2-(3,4-dimethoxybenzyl)-2,11-dihydroimidazo[1′,5′:1,2]pyrido[3,4-b]indol-4-ium chloride] | – | > 10 | – | – | 0.955 | – | > 10
Fc1ccc(-n2c[n+]3ccc4c5ccccc5[nH]c4c3c2-c2ccc(Br)cc2)c(Cl)c1 [8abl, 1-(4-Bromophenyl)-2-(2-chloro-4-fluorophenyl)-2,11-dihydrolmidazo[1′,5′:1,2]pyrido[3,4-b]indol-4-ium chloride] | – | > 10 | – | – | > 10 | – | > 10
Fc1cccc(-n2c[n+]3ccc4c5ccccc5[nH]c4c3c2-c2ccccc2Br)c1 [8aci, 1-(2-Bromophenyl)-2-(3-fluorophenyl)-2,11-dihydroimidazo[1′,5′:1,2]pyrido[3,4-b]indol-4-ium] | – | > 10 | – | – | 0.0631 | – | > 10
Clc1ccccc1-n1c[n+]2ccc3c4ccccc4[nH]c3c2c1-c1ccc(Br)cc1 [8abj, 1-(4-Bromophenyl)-2-(2-chlorophenyl)-2,11-dihydroimidazo[1′,5′:1,2]pyrido[3,4-b]indol-4-ium] | – | > 10 | – | – | 0.251 | – | 0.251
Fc1ccc(-c2c3c4[nH]c5ccccc5c4cc[n+]3cn2-c2ccccc2)cc1 [8aga, 1-(4-Fluorophenyl)-2-phenyl-2,11-dihydroimidazo[1′,5′:1,2]pyrido[3,4-b]indol-4-ium chloride] | – | > 10 | – | – | > 10 | – | > 10
COc1ccc(Cn2c[n+]3ccc4c5ccccc5[nH]c4c3c2-c2ccc(Br)cc2)cc1 [9aae] | – | > 10 | – | – | 3.31 | – | > 10
COc1cc(-c2c3c4[nH]c5ccccc5c4cc[n+]3cn2-c2ccc(F)cc2)cc(OC)c1OC [8apd, 2-(4-Fluorophenyl)-1-(3,4,5-trimethoxyphenyl)-2,11-dihydroimidazo[1′,5′:1,2]pyrido[3,4-b]indol-4-ium chloride] | – | > 10 | – | – | > 10 | – | > 10
O=[N+]([O-])c1ccc(-c2c3c4[nH]c5ccccc5c4cc[n+]3cn2-c2ccc(F)cc2)cc1 [8ald, 2-(4-Fluorophenyl)-1-(4-nitrophenyl)-2,11-dihydrolmidazo[1′,5′:1,2]pyrido[3,4-b]indol-4-ium chloride] | – | > 10 | – | – | > 10 | – | > 10
Fc1ccc(F)c(Cn2c[n+]3ccc4c5ccccc5[nH]c4c3c2-c2ccc(Br)cc2)c1 [9aaf] | – | > 10 | – | – | > 10 | – | > 10
